Like-named read-outs stand apart in the source and are kept apart here.
Experiments:
Format in all cases: cell-based
[1] = tested on: SK—CO-1 cells; assay: SK-CO-1 CTG proliferation assay (120 h) (CRC, G12V); settings: Homo sapiens, SK-CO-1 proliferation
Procedure: SK—CO-1 CTG Proliferation Assay (120 h) (CRC, G12V)
(§1) SK—CO-1 cells (ATCC HTB-39) are dispensed into 384-well plates, flat and clear bottom (Greiner, PNr. 781091) at a density of 500 cells per well in 60 μL EMEM (Sigma M5650)+10% Fetal Calf Serum (HyClone, PNr.: SH30084.03) and incubated at 37° C. in a CO2 incubator overnight. The next day, compounds (10 mM stock in DMSO) are added with the ECHO acoustic liquid handler system (Beckman Coulter), including DMSO controls. Plates are incubated for 120 h, and cell viability is measured using CellTiter-Glo luminescent cell viability reagent (Promega product code G7570). Viability (stated as percent of control) is defined as relative luminescence units RLU of each well divided by the RLU of cells in DMSO controls. IC50 values are determined from viability measurements by non-linear regression using a four-parameter model.

[2] = tested on: SAS cells; assay: SAS CTG proliferation assay (120 h) (HNSCC, wt amplified)
Procedure: SAS CTG Proliferation Assay (120 h) (HNSCC, Wt Amplified)
as §1, with “SAS” for “SK—CO-1”, “(JCRB0260)” for “(ATCC HTB-39)”, “300” for “500”, “DMEM:F12 (Gibco 31330-038)+10%” for “EMEM (Sigma M5650)+10%”

[3] = tested on: LOVO cells; assay: LOVO CTG proliferation assay (120 h) (CRC, G13D); settings: Homo sapiens
Procedure: LOVO CTG Proliferation Assay (120 h) (CRC, G13D)
as §1, with “LOVO” for “SK—CO-1”, “CCL-229)” for “HTB-39)”, “1000” for “500”, “DMEM” for “EMEM”, “D6429)+10%” for “M5650)+10%”

[4] = tested on: SW620 cells; assay: SW620 cell proliferation assay (colorectal cancer, G12V), 5 days; settings: Homo sapiens, SW-620, 120 h
In short: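 SW620 cells (2000/well, DMEM with 10% FCS) exposed to a logarithmic compound dilution series for 5 days. Viability by CellTiter-Glo luminescence as percent of DMSO control; IC50 from a four-parameter logistic fit.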

[5] = tested on: NCI-H358 cells; assay: NCI-H358 CTG proliferation assay (120 h) (NSCLC, G12C); settings: Homo sapiens
In short: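 IC50 values derive from four-parameter nonlinear regression of CellTiter-Glo viability (RLU relative to DMSO wells) after 120 h of exposure. Cells were plated in RPMI-1640 + 10% FCS at 2000 per well (assay 1) or 200 per well (assay 2). Untreated cells were measured at compound addition as T0.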

[6] = tested on: AsPC-1 cells; assay: AsPC-1 CTG proliferation assay (120 h) (pancreatic cancer, G12D); settings: Homo sapiens, ASPC1, AsPC-1 proliferation
Procedure: AsPC-1 CTG Proliferation Assay (120 h) (Pancreatic Cancer, G12D)
The CTG assay is designed to measure quantitatively the proliferation of AsPC-1 cells (ATCC […]), using the CellTiter Glow Assay Kit (Promega G7571). Cells are grown in RPMI medium (ATCC) supplemented with Fetal Calf Serum (Life Technologies, Gibco BRL, Cat. No. 10270-106). On “day 0” 2000 AsPC-1 cells are seeded in 60 μL RPMI ATCC+10% FCS+ Penstrep in a 384-well plate, flat and clear bottom (Greiner, PNr. 781091). Cells are then incubated in the plates at 37° C. in a CO2 incubator overnight. On day 1, compounds (10 mM stock in DMSO) are added with the ECHO acoustic liquid handler system (Beckman Coulter), including DMSO controls. Plates are incubated for 120 h, and cell viability is measured using CellTiter-Glo luminescent cell viability reagent (Promega product code G7570). Viability (stated as percent of control) is defined as relative luminescence units RLU of each well divided by the RLU of cells in DMSO controls. IC50 values are determined from viability measurements by non-linear regression using a four-parameter model.

[7] = assay 1, read-out: H358 (assay 1) IC50
[8] = assay 2, read-out: H358 (assay 2) IC50

SMILES | IC50 [1] [nM] | IC50 [3] [nM] | IC50 [4] [nM] | IC50 [5, 7] [nM] | IC50 [5, 8] [nM] | IC50 [6] [nM] | IC50 [2] [nM]
Cc1ncsc1-c1ccc(CNC(=O)[C@@H]2C[C@@H](O)CN2C(=O)[C@H](c2cc(OCCCN3CCCN(c4nccc(-c5noc([C@@]6(C)CCCc7sc(N)c(C#N)c76)n5)n4)[C@@H](C)C3)no2)C(C)C)cc1 (single isomer, unassigned) [I-24] | 2220 | 1950 | 802 | 1070 | 1440 | 1800 | 1310
Cc1ncsc1-c1ccc(CNC(=O)[C@@H]2C[C@@H](O)CN2C(=O)[C@@H](c2cc(OCCCN3CCCN(c4nccc(-c5noc([C@@]6(C)CCCc7sc(N)c(C#N)c76)n5)n4)[C@@H](C)C3)no2)C(C)C)cc1 (single isomer, unassigned) [I-25] | 57.3 | 53.5 | 9.88 | 45.6 | 63.9 | 93.4 | 17.8
Cc1ncsc1-c1ccc(CNC(=O)[C@@H]2C[C@@H](O)CN2C(=O)C(c2cc(OCCCCN3CCCN(c4nccc(-c5cc([C@@]6(C)CCCc7sc(N)c(C#N)c76)on5)n4)[C@@H](C)C3)no2)C(C)C)cc1 (stereo partly drawn) [I-4] | 207 | 425 | 53.4 | 445 | 196 | 372 | 628
CC(C)C(C(=O)N1C[C@H](O)C[C@H]1C(=O)NCc1ccc(C#N)cc1)c1cc(OCCCCN2CCCN(c3nccc(-c4noc([C@@]5(C)CCCc6sc(N)c(C#N)c65)n4)n3)[C@@H](C)C2)no1 (stereo partly drawn) [I-16] | 184 | 1820 | 37.1 | 231 | 85.5 | 169 | 29.7
Cc1ncsc1-c1ccc([C@H](CO)NC(=O)[C@@H]2C[C@@H](O)CN2C(=O)[C@H](C(C)C)n2cc(OC(C)CCCN3CCCN(c4nccc(-c5noc([C@@]6(C)CCCc7sc(N)c(C#N)c76)n5)n4)[C@@H](C)C3)nn2)cc1 (stereo partly drawn) [I-31] | 132 | 344 | 62.1 | 159 |  | 183 | 90
Cc1ncsc1-c1ccc([C@H](CCO)NC(=O)[C@@H]2C[C@@H](O)CN2C(=O)[C@H](C(C)C)n2cc(OCCCCN3CCCN(c4nccc(-c5noc([C@@]6(C)CCCc7sc(N)c(C#N)c76)n5)n4)[C@@H](C)C3)nn2)cc1 [I-38] | 117 | 597 | 28.4 | 98.8 |  | 128 | 58.1

Molecules with a lower IC50 [1], results first:

IC50 [1] [nM] | IC50 [3] [nM] | IC50 [4] [nM] | IC50 [5, 7] [nM] | IC50 [5, 8] [nM] | IC50 [6] [nM] | SMILES | IC50 [2] [nM]
51.7 | 40.9 | 14.9 | 60.5 | 35.2 | 144 | Cc1ncsc1-c1ccc(CNC(=O)[C@@H]2C[C@@H](O)CN2C(=O)[C@@H](c2cc(OCCCCN3CCCN(c4nccc(-c5noc([C@@]6(C)CCCc7sc(N)c(C#N)c76)n5)n4)[C@@H](C)C3)no2)C(C)C)cc1 (single isomer, unassigned) [I-27] | 94.6
45 | 649 | 13.2 | 32 | 81.4 | 72 | Cc1ncsc1-c1ccc([C@H](C)NC(=O)[C@@H]2C[C@@H](O)CN2C(=O)C(C(C)C)n2cc(OCCCCN3CCCN(c4nccc(-c5noc([C@@]6(C)CCCc7sc(N)c(C#N)c76)n5)n4)[C@@H](C)C3)nn2)cc1 (stereo partly drawn) [I-28] | 58.3
33.3 | 43 | 14.5 | 98.6 | 13.4 | 51.4 | Cc1ncsc1-c1ccc([C@@H](NC(=O)[C@@H]2C[C@@H](O)CN2C(=O)[C@H](C(C)C)n2cc(OCCCCN3CCCN(c4nccc(-c5noc([C@@]6(C)CCCc7sc(N)c(C#N)c76)n5)n4)[C@@H](C)C3)nn2)[C@H](O)C(C)C)cc1 (single isomer, unassigned) [I-45] | 1810
29.7 | 86.4 | 18 | 29.3 |  | 69 | Cc1ncsc1-c1ccc([C@H](CO)NC(=O)[C@@H]2C[C@@H](O)CN2C(=O)[C@H](C(C)C)n2cc(OCCCC(C)N3CCCN(c4nccc(-c5noc([C@@]6(C)CCCc7sc(N)c(C#N)c76)n5)n4)[C@@H](C)C3)nn2)cc1 (stereo partly drawn) [I-30] | 15.2
26.2 | 22.2 | 9.4 | 50.8 | 8.1 | 52.1 | Cc1ncsc1-c1ccc([C@@H](NC(=O)[C@@H]2C[C@@H](O)CN2C(=O)[C@H](C(C)C)n2cc(OCCCN3CCCN(c4nccc(-c5noc([C@@]6(C)CCCc7sc(N)c(C#N)c76)n5)n4)[C@@H](C)C3)nn2)[C@H](O)C(C)C)cc1 (single isomer, unassigned) [I-43] | 411
24.3 | 44 | 26.4 | 28.8 |  | 97.2 | Cc1ncsc1-c1ccc([C@H](CO)NC(=O)[C@@H]2C[C@@H](O)CN2C(=O)[C@H](C(C)C)n2cc(OCCCCN3CCCN(c4nccc(-c5noc([C@@]6(C)CCCc7sc(N)c(C#N)c76)n5)n4)[C@@H](C)C3)nn2)cc1 [I-29] | 548
22.6 | 29.3 | 10.5 | 59.6 | 14.9 | 42 | Cc1ncsc1-c1ccc([C@@H](NC(=O)[C@@H]2C[C@@H](O)CN2C(=O)[C@H](C(C)C)n2cc(OCCCCN3CCCN(c4nccc(-c5noc([C@@]6(C)CCCc7sc(N)c(C#N)c76)n5)n4)[C@@H](C)C3)nn2)[C@H](C)O)cc1 (single isomer, unassigned) [I-41] | 30.3
